Measurements reported in patent US20250019373A1, “ARYL OR HETEROARYL DERIVATIVE, AND PHARMACEUTICAL COMPOSITION COMPRISING SAME AS ACTIVE INGREDIENT FOR PREVENTION OR TREATMENT OF KINASE-RELATED DISEASES” (VORONOI INC., priority 2021, published 2025).
pEC50: −log10 of the molar value.

Each compound was assayed on HT-29 cells (assay: Cell necrosis inhibitory activity under necroptosis-inducing conditions (TNF-α, Z-VAD-FMK, LCL161) in HT-29 cells, Cell Titer-Glo). Conditions: Homo sapiens, 100 ng/mL TNF-α + 25 μM Z-VAD-FMK + Smac mimetic LCL161, 24 hours, cell viability.
Format: cell-based
Outline: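 HT-29 cells seeded 24 h, then necroptosis induced with 100 ng/mL TNF-α, 25 μM Z-VAD-FMK and 10 μM LCL161 for 10 min before compound (11 points, 3-fold, top 0.1 or 1 μM; 0.05% DMSO). After 24 h, viability by CellTiter-Glo luminescence relative to untreated controls gave EC50 (nM).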

`COc1ncc(-c2ccc3nc(NC(C)=O)sc3c2)cc1NC(=O)N1OCC[C@H]1c1ccccc1` [Example 26, (S)-N-(5-(2-acetamidobenzo[d]thiazol-6-yl)-2-methoxypyridin-3-yl)-3-phenylisoxazolidine-2-carboxamide] and `COc1ncc(-c2ccc3nc(NC(C)=O)sc3n2)cc1NC(=O)N1OCC[C@H]1c1ccccc1` [Example 14, (S)-N-(5-(2-acetamidothiazolo[5,4-b]pyridin-5-yl)-2-methoxypyridin-3-yl)-3-phenylisoxazolidine-2-carboxamide] are the same in pEC50: 9.15 for the first, 9.15 for the second.

Compared with `COc1ccc(-c2ccc3nc(N)nn3c2)cc1NC(=O)N1OCC[C@H]1c1ccccc1` [Example 31, (S)-N-(5-(2-amino-[1,2,4]triazolo[1,5-a]pyridin-6-yl)-2-methoxyphenyl)-3-phenylisoxazolidine-2-carboxamide], `Nc1nc2ccc(-c3ccc(F)c(NC(=O)N4OCC[C@H]4c4ccccc4)c3)cn2n1` [Example 96, (S)-N-(5-(2-amino-[1,2,4]triazolo[1,5-a]pyridin-6-yl)-2-fluorophenyl)-3-phenylisoxazolidine-2-carboxamide] is 0.38 log units higher in pEC50: 8.34 for the first, 8.72 for the second. The second is the more potent here.

`Cc1ccc(-c2ccc3nnc(C(F)(F)F)n3n2)cc1NC(=O)N1OCC[C@H]1c1ccccc1` [Example 108, (S)-N-(2-methyl-5-(3-(trifluoromethyl)-[1,2,4]triazolo[4,3-b]pyridazin-6-yl)phenyl)-3-phenylisoxazolidine-2-carboxamide] and `Cc1ccc(-c2ccc3nnc(C)n3n2)cc1NC(=O)N1OCC[C@H]1c1ccccc1` [Example 107, (S)-N-(2-methyl-5-(3-methyl-[1,2,4]triazolo[4,3-b]pyridazin-6-yl)phenyl)-3-phenylisoxazolidine-2-carboxamide] are within 0.2 log units of each other in pEC50: 7.53 for the first, 7.63 for the second.

Compared with `CC(=O)Nc1cn2nc(-c3cnc(C)c(NC(=O)N4OCC[C@H]4c4ccccc4)c3)ccc2n1` [Example 11, (S)-N-(5-(2-acetamidoimidazo[1,2-b]pyridazin-6-yl)-2-methylpyridin-3-yl)-3-phenylisoxazolidine-2-carboxamide], `CC(=O)Nc1nc2ccc(-c3cnc(C)c(NC(=O)N4OCC[C@H]4c4ccccc4)c3)cn2n1` [Example 35, (S)-N-(5-(2-acetamido-[1,2,4]triazolo[1,5-a]pyridin-6-yl)-2-methylpyridin-3-yl)-3-phenylisoxazolidine-2-carboxamide] is 0.56 log units lower in pEC50: 9.05 for the first, 8.49 for the second. The first is the more potent here.

Going from `Nc1nc2cc(-c3ccc(Cl)c(NC(=O)N4OCC[C@H]4c4ccccc4)c3)ccn2n1` [Example 124, (S)-N-(5-(2-amino-[1,2,4]triazolo[1,5-a]pyridin-7-yl)-2-chlorophenyl)-3-phenylisoxazolidine-2-carboxamide] to `COc1ncc(-c2ccn3nc(N)nc3c2)cc1NC(=O)N1OCC[C@H]1c1ccccc1` [Example 47, (S)-N-(5-(2-amino-[1,2,4]triazolo[1,5-a]pyridin-7-yl)-2-methoxypyridin-3-yl)-3-phenylisoxazolidine-2-carboxamide], the pEC50 falls from 9.70 to 9.30 (0.40 log units).

`C#Cc1cnc2ccc(-c3ccc(C)c(NC(=O)N4OCC[C@H]4c4ccccc4)c3)nn12` [Example 125, (S)-N-(5-(3-ethynylimidazo[1,2-b]pyridazin-6-yl)-2-methylphenyl)-3-phenylisoxazolidine-2-carboxamide] and `C#Cc1cnc2ccc(-c3ccc(C)c(NC(=O)N4OCC[C@H]4c4ccccc4)c3)cn12` [Example 116, (S)-N-(5-(3-ethynylimidazo[1,2-a]pyridin-6-yl)-2-methylphenyl)-3-phenylisoxazolidine-2-carboxamide] are within 0.2 log units of each other in pEC50: 8.85 for the first, 9.00 for the second.

Compared with `Cc1ncc(-c2ccc3c(N)ncnn23)cc1NC(=O)N1OCC[C@H]1c1ccccc1` [Example 120, (S)-N-(5-(4-aminopyrrolo[2,1-f][1,2,4]triazin-7-yl)-2-methylpyridin-3-yl)-3-phenylisoxazolidine-2-carboxamide], `Cc1ccc(-c2ccc3c(N)ncnn23)cc1NC(=O)N1OCC[C@H]1c1ccccc1` [Example 100, (S)-N-(5-(4-aminopyrrolo[2,1-f][1,2,4]triazin-7-yl)-2-methylphenyl)-3-phenylisoxazolidine-2-carboxamide] is 0.66 log units lower in pEC50: 9.00 for the first, 8.34 for the second.

First: Cc1ccc(-c2ccc3nc(N)sc3n2)cc1NC(=O)N1OCC[C@H]1c1ccccc1 [Example 98, (S)-N-(5-(2-aminothiazolo[5,4-b]pyridin-5-yl)-2-methylphenyl)-3-phenylisoxazolidine-2-carboxamide]
Second: Cc1ccc(-c2ccc3ncn(C)c3n2)cc1NC(=O)N1OCC[C@H]1c1ccccc1 [Example 143, (S)-N-(2-methyl-5-(3-methyl-3H-imidazo[4,5-b]pyridin-5-yl)phenyl)-3-phenylisoxazolidine-2-carboxamide]
The pEC50 of the first is 1.22 log units higher: 9.52 for the first, 8.30 for the second. The first is the more potent here.

First: Cc1ncc(-c2ccc3nc(N)nn3c2)cc1NC(=O)N1OCC[C@H]1c1cc(F)cc(Cl)c1 [Example 52, (S)-N-(5-(2-amino-[1,2,4]triazolo[1,5-a]pyridin-6-yl)-2-methylpyridin-3-yl)-3-(3-chloro-5-fluorophenyl)isoxazolidine-2-carboxamide]
Second: Cc1ncc(-c2ccc3nc(N)nn3c2)cc1NC(=O)N1OCC[C@H]1c1ccc(Cl)cc1 [Example 69, (S)-N-(5-(2-amino-[1,2,4]triazolo[1,5-a]pyridin-6-yl)-2-methylpyridin-3-yl)-3-(4-chlorophenyl)isoxazolidine-2-carboxamide]
The pEC50 of the first is 0.85 log units lower: 8.55 for the first, 9.40 for the second. The second is the more potent here.

`O=C(Nc1cn2nc(-c3cccc(NC(=O)N4OCC[C@H]4c4ccccc4)c3)ccc2n1)C1CC1` [Example 2, (S)-N-(3-(2-(cyclopropanecarboxamido)imidazo[1,2-b]pyridazin-6-yl)phenyl)-3-phenylisoxazolidine-2-carboxamide] and `O=C(Nc1nc2ccc(-c3cccc(NC(=O)N4OCC[C@H]4c4ccccc4)c3)cc2s1)C1CC1` [Example 25, (S)-N-(3-(2-(cyclopropanecarboxamido)benzo[d]thiazol-6-yl)phenyl)-3-phenylisoxazolidine-2-carboxamide] are the same in pEC50: 9.70 for the first, 9.70 for the second.

First: Cc1ccc(-c2ccn3nc(N)cc3c2)cc1NC(=O)N1CCO[C@@H](c2ccccc2)C1 [Example 137, (S)-N-(5-(2-aminopyrazolo[1,5-a]pyridin-5-yl)-2-methylphenyl)-2-phenylmorpholine-4-carboxamide]
Second: Cc1ccc(-c2ccn3nc(N)nc3c2)cc1NC(=O)N1OCC[C@H]1c1cccc(F)c1 [Example 62, (S)-N-(5-(2-amino-[1,2,4]triazolo[1,5-a]pyridin-7-yl)-2-methylphenyl)-3-(3-fluorophenyl)isoxazolidine-2-carboxamide]
The pEC50 of the first is 2.39 log units lower: 7.31 for the first, 9.70 for the second.

Compared with `COc1ncc(-c2ccc3nnn(C(C)C)c3c2)cc1NC(=O)N1OCC[C@H]1c1ccccc1` [Example 12, (S)-N-(5-(1-isopropyl-1H-benzo[d][1,2,3]triazol-6-yl)-2-methoxypyridin-3-yl)-3-phenylisoxazolidine-2-carboxamide], `COc1ccc(-c2ccc3nnn(C(C)C)c3c2)cc1NC(=O)N1OCC[C@H]1c1ccccc1` [Example 15, (S)-N-(5-(1-isopropyl-1H-benzo[d][1,2,3]triazol-6-yl)-2-methoxyphenyl)-3-phenylisoxazolidine-2-carboxamide] is 0.24 log units lower in pEC50: 7.86 for the first, 7.62 for the second. The first is the more potent here.

Compared with `COc1ncc(-c2ccc3nc(N)nn3c2)cc1NC(=O)N1OCC[C@H]1c1cccc(F)c1` [Example 58, (S)-N-(5-(2-amino-[1,2,4]triazolo[1,5-a]pyridin-6-yl)-2-methoxypyridin-3-yl)-3-(3-fluorophenyl)isoxazolidine-2-carboxamide], `COc1ncc(-c2ccn3nc(N)nc3c2)cc1NC(=O)N1OCC[C@H]1c1cccc(F)c1` [Example 53, (S)-N-(5-(2-amino-[1,2,4]triazolo[1,5-a]pyridin-7-yl)-2-methoxypyridin-3-yl)-3-(3-fluorophenyl)isoxazolidine-2-carboxamide] is 0.89 log units higher in pEC50: 8.41 for the first, 9.30 for the second.

Compared with `CN(C)C1CCC(NC(=O)c2n[nH]c3cc(-c4cccc(NC(=O)N5OCC[C@H]5c5ccccc5)c4)ccc23)CC1` (stereo partly drawn) [Example 20, (S)-N-(3-(3-((4-(dimethylamino)cyclohexyl)carbamoyl)-1H-indazol-6-yl)phenyl)-3-phenylisoxazolidine-2-carboxamide], `Cc1ncc(-c2ccc3nc(NC(=O)C4CC4)nn3c2)cc1NC(=O)N1OCC[C@H]1c1ccccc1` [Example 36, (S)-N-(5-(2-(cyclopropanecarboxamido)-[1,2,4]triazolo[1,5-a]pyridin-6-yl)-2-methylpyridin-3-yl)-3-phenylisoxazolidine-2-carboxamide] is 0.30 log units lower in pEC50: 9.52 for the first, 9.22 for the second. The first is the more potent here.

`CC(=O)Nc1nc2cc(-c3cnc(C)c(NC(=O)N4OCC[C@H]4c4ccccc4)c3)ccn2n1` [Example 49, (S)-N-(5-(2-acetamido-[1,2,4]triazolo[1,5-a]pyridin-7-yl)-2-methylpyridin-3-yl)-3-phenylisoxazolidine-2-carboxamide] and `Cc1ccc(-c2ccc3ncc(C#N)n3c2)cc1NC(=O)N1OCC[C@H]1c1ccccc1` [Example 114, (S)-N-(5-(3-cyanoimidazo[1,2-a]pyridin-6-yl)-2-methylphenyl)-3-phenylisoxazolidine-2-carboxamide] are within 0.2 log units of each other in pEC50: 8.89 for the first, 8.72 for the second.

Compared with `COc1ncc(-c2ccn3nc(N)nc3c2)cc1NC(=O)N1OCC[C@H]1c1cc(F)cc(F)c1` [Example 54, (S)-N-(5-(2-amino-[1,2,4]triazolo[1,5-a]pyridin-7-yl)-2-methoxypyridin-3-yl)-3-(3,5-difluorophenyl)isoxazolidine-2-carboxamide], `Cc1ccc([C@@H]2CCON2C(=O)Nc2cc(-c3ccc4nc(N)nn4c3)cnc2C)cn1` [Example 51, (S)-N-(5-(2-amino-[1,2,4]triazolo[1,5-a]pyridin-6-yl)-2-methylpyridin-3-yl)-3-(6-methylpyridin-3-yl)isoxazolidine-2-carboxamide] is 1.77 log units lower in pEC50: 9.40 for the first, 7.63 for the second.

With `Cc1ccc(-c2cc3scnc3cn2)cc1NC(=O)N1OCC[C@H]1c1ccccc1` [Example 130, (S)-N-(2-methyl-5-(thiazolo[4,5-c]pyridin-6-yl)phenyl)-3-phenylisoxazolidine-2-carboxamide] the pEC50 was 8.85.
